Patent US20250115600A1, “COVALENT MODIFIERS OF AKT1 AND USES THEREOF” (Terremoto Biosciences, Inc., priority 2022, published 2025)

How the values were obtained:
Experiment in all cases: Live cell target engagement (NanoBRET) in HEK293 cells
Format in all cases: cell-based
AKT2 = AKT2 (Homo sapiens (Human), UniProt P31751); conditions: HEK293, 2 hours at 37° C.
AKT1 E17K = AKT1 E17K (Homo sapiens (Human), UniProt P31749, E17K); conditions: for IC50: HEK293, 2 hours at 37° C.
AKT1 WT = AKT1 WT (Homo sapiens (Human), UniProt P31749); conditions: HEK293, 2 hours at 37° C.
Chain of AKT1 WT (P31749 whole entry): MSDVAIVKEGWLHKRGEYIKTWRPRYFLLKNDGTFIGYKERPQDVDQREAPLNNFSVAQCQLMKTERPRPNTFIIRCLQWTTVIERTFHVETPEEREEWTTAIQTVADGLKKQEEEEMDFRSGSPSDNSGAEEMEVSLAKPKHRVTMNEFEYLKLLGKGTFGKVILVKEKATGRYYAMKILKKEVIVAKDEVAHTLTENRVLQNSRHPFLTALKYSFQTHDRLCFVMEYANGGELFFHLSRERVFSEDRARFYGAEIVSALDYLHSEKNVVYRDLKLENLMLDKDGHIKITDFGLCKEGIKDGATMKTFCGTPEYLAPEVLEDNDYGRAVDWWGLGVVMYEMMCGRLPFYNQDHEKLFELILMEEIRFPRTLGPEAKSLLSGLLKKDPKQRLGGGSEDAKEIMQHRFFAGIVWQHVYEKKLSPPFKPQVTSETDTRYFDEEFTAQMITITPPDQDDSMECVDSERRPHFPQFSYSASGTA

Chain of AKT2 (P31751 whole entry): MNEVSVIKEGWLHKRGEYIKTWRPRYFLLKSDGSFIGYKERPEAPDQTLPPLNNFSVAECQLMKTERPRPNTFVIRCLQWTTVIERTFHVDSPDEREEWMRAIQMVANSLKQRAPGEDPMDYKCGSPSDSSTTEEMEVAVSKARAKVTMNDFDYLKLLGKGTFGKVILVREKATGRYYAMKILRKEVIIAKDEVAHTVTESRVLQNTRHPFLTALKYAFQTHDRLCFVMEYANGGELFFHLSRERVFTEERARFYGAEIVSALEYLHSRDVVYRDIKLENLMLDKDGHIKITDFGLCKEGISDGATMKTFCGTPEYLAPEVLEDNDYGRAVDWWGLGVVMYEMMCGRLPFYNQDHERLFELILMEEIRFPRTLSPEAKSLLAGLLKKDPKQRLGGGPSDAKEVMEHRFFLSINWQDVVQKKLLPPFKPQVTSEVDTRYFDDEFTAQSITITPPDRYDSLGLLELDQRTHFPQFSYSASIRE
Chain of AKT1 E17K (P31749 whole entry E17K): as the sequence (P31749 whole entry) above, with E17K counted along it

CC(C)c1ccc2nc(-c3cccnc3N)n(-c3ccc(CNC(=O)Cc4ccc(C=O)c(O)c4)cc3)c2n1 [Example 23, N-({4-[2-(2-aminopyridin-3-yl)-5-isopropylimidazo[4,5-b]pyridin-3-yl]phenyl}methyl)-2-(4-formyl-3-hydroxyphenyl)acetamide]
IC50 (AKT2): > 500 nM | AKT1 E17K IC50: Selectivity vs AKT1 WT (AKT1 E17K): 4.8 | AKT1 E17K IC50: Selectivity vs AKT2 (AKT1 E17K): 270 | IC50 (AKT1 E17K): < 100 nM | IC50 (AKT1 WT): < 100 nM

Nc1ncccc1-c1nc2ccc(-c3ccccc3)nc2n1-c1ccc(NC(=O)Cc2ccc(O)c(C=O)c2)cc1 [Compound 28, N-{4-[2-(2-aminopyridin-3-yl)-5-phenylimidazo[4,5-b]pyridin-3-yl]phenyl}-2-(3-formyl-4-hydroxyphenyl)acetamide]
IC50 (AKT2): 100 to 500 nM | AKT1 E17K IC50: Selectivity vs AKT1 WT (AKT1 E17K): 1.3 | AKT1 E17K IC50: Selectivity vs AKT2 (AKT1 E17K): 17 | IC50 (AKT1 E17K): < 100 nM | IC50 (AKT1 WT): < 100 nM

Nc1ncccc1-c1nc2ccc(-c3ccnc(N4CCOCC4)c3)nc2n1-c1ccc(CNC(=O)Cc2ccc(C=O)c(O)c2)cc1 [Compound 34, N-({4-[2-(2-aminopyridin-3-yl)-5-[2-(morpholin-4-yl)pyridin-4-yl]imidazo[4,5-b]pyridin-3-yl]phenyl}methyl)-2-(4-formyl-3-hydroxyphenyl)acetamide]
IC50 (AKT2): > 500 nM | AKT1 E17K IC50: Selectivity vs AKT1 WT (AKT1 E17K): 10 | AKT1 E17K IC50: Selectivity vs AKT2 (AKT1 E17K): 40 | IC50 (AKT1 E17K): < 100 nM | IC50 (AKT1 WT): 100 to 500 nM

Nc1ncccc1-c1nc2ccc(C3CC3)nc2n1-c1ccc(CNC(=O)c2ccc(O)c(C=O)c2)cc1 [Compound 27, N-({4-[2-(2-aminopyridin-3-yl)-5-cyclopropylimidazo[4,5-b]pyridin-3-yl]phenyl}methyl)-3-formyl-4-hydroxybenzamide]
IC50 (AKT2): > 500 nM | AKT1 E17K IC50: Selectivity vs AKT1 WT (AKT1 E17K): 3.8 | AKT1 E17K IC50: Selectivity vs AKT2 (AKT1 E17K): 110 | IC50 (AKT1 E17K): < 100 nM | IC50 (AKT1 WT): 100 to 500 nM

COc1c(CCNCc2ccc(-n3c(-c4cccnc4N)nc4ccc(-c5ccccc5)nc43)cc2)ccc(C=O)c1O [Compound 76, 4-{2-[({4-[2-(2-aminopyridin-3-yl)-5-phenylimidazo[4,5-b]pyridin-3-yl]phenyl}methyl)amino]ethyl}-2-hydroxy-3-methoxybenzaldehyde]
IC50 (AKT2): 100 to 500 nM | AKT1 E17K IC50: Selectivity vs AKT1 WT (AKT1 E17K): 1.6 | AKT1 E17K IC50: Selectivity vs AKT2 (AKT1 E17K): 4.7 | IC50 (AKT1 E17K): 100 to 500 nM | IC50 (AKT1 WT): 100 to 500 nM

CC(NCCc1ccc(O)c(C=O)c1)c1ccc(-n2c(-c3cccnc3N)nc3ccc(-c4ccccc4)nc32)cc1 (stereo not drawn) [Compound 126, 5-(2-((1-(4-(2-(2-aminopyridin-3-yl)-5-phenyl-3H-imidazo[4,5-b]pyridin-3-yl)phenyl)ethyl)amino)ethyl)-2-hydroxybenzaldehyde]
IC50 (AKT2): 100 to 500 nM | AKT1 E17K IC50: Selectivity vs AKT1 WT (AKT1 E17K): 5 | AKT1 E17K IC50: Selectivity vs AKT2 (AKT1 E17K): 12 | IC50 (AKT1 E17K): < 100 nM | IC50 (AKT1 WT): < 100 nM

Nc1ncccc1-c1nc2ccc(C3CC3)nc2n1-c1ccc(CNC(=O)C(F)c2ccc(C=O)c(O)c2)cc1 (stereo not drawn) [Compound 26, N-({4-[2-(2-aminopyridin-3-yl)-5-cyclopropylimidazo[4,5-b]pyridin-3-yl]phenyl}methyl)-2-fluoro-2-(4-formyl-3-hydroxyphenyl)acetamide]
IC50 (AKT2): > 500 nM | AKT1 E17K IC50: Selectivity vs AKT1 WT (AKT1 E17K): 2.4 | AKT1 E17K IC50: Selectivity vs AKT2 (AKT1 E17K): 190 | IC50 (AKT1 E17K): < 100 nM | IC50 (AKT1 WT): < 100 nM

Nc1ncccc1-c1nc2ccc(-c3ccccc3)nc2n1-c1ccc(NC(=O)CCc2ccc(C=O)c(O)c2)cc1 [Compound 118, N-(4-(2-(2-aminopyridin-3-yl)-5-phenyl-3H-imidazo[4,5-b]pyridin-3-yl)phenyl)-3-(4-formyl-3-hydroxyphenyl)propanamide]
IC50 (AKT2): 100 to 500 nM | AKT1 E17K IC50: Selectivity vs AKT1 WT (AKT1 E17K): 1.6 | AKT1 E17K IC50: Selectivity vs AKT2 (AKT1 E17K): 29 | IC50 (AKT1 E17K): < 100 nM | IC50 (AKT1 WT): < 100 nM

Nc1ncccc1-c1nc2ccc(C3CC3C(=O)N3CCOCC3)nc2n1-c1ccc(CNC(=O)Cc2ccc(C=O)c(O)c2)cc1 (stereo not drawn) [Example 6, N-({4-[2-(2-aminopyridin-3-yl)-5-[2-(morpholine-4-carbonyl)cyclopropyl]imidazo[4,5-b]pyridin-3-yl]phenyl}methyl)-2-(4-formyl-3-hydroxyphenyl)acetamide]
IC50 (AKT2): > 500 nM | AKT1 E17K IC50: Selectivity vs AKT1 WT (AKT1 E17K): 8.7 | AKT1 E17K IC50: Selectivity vs AKT2 (AKT1 E17K): 18 | IC50 (AKT1 E17K): 100 to 500 nM | IC50 (AKT1 WT): > 500 nM

CC(C)(C)c1cc(C(=O)NCc2ccc(-n3c(-c4cccnc4N)nc4ccc(-c5ccccc5)nc43)cc2)cc(C=O)c1O [Compound 41, N-(4-(2-(2-aminopyridin-3-yl)-5-phenyl-3H-imidazo[4,5-b]pyridin-3-yl)benzyl)-3-(tert-butyl)-5-formyl-4-hydroxybenzamide]
IC50 (AKT2): > 500 nM | AKT1 E17K IC50: Selectivity vs AKT1 WT (AKT1 E17K): 0.24 | AKT1 E17K IC50: Selectivity vs AKT2 (AKT1 E17K): 0.77 | IC50 (AKT1 E17K): > 500 nM | IC50 (AKT1 WT): > 500 nM

CC(C(=O)NCc1ccc(-n2c(-c3cccnc3N)nc3ccc(-c4ccccc4)nc32)cc1)c1ccc(C=O)c(O)c1 (stereo not drawn) [Compound 37]
IC50 (AKT2): > 500 nM | AKT1 E17K IC50: Selectivity vs AKT1 WT (AKT1 E17K): 11 | AKT1 E17K IC50: Selectivity vs AKT2 (AKT1 E17K): 180 | IC50 (AKT1 E17K): < 100 nM | IC50 (AKT1 WT): < 100 nM

Nc1ncccc1-c1nc2ccc(-c3ccccn3)nc2n1-c1ccc(CNCCc2ccc(C=O)c(O)c2)cc1 [Compound 103, 4-{2-[({4-[2-(2-aminopyridin-3-yl)-5-(pyridin-2-yl)imidazo[4,5-b]pyridin-3-yl]phenyl}methyl)amino]ethyl}-2-hydroxybenzaldehyde]
IC50 (AKT2): 100 to 500 nM | AKT1 E17K IC50: Selectivity vs AKT1 WT (AKT1 E17K): 2.5 | AKT1 E17K IC50: Selectivity vs AKT2 (AKT1 E17K): 11 | IC50 (AKT1 E17K): < 100 nM | IC50 (AKT1 WT): < 100 nM

Nc1ncccc1-c1nc2ccc(-c3ccncc3)nc2n1-c1ccc(CNC(=O)Cc2ccc(C=O)c(O)c2)cc1 [Compound 61, N-({4-[2-(2-aminopyridin-3-yl)-5-(pyridin-4-yl)imidazo[4,5-b]pyridin-3-yl]phenyl}methyl)-2-(4-formyl-3-hydroxyphenyl)acetamide]
IC50 (AKT2): > 500 nM | AKT1 E17K IC50: Selectivity vs AKT1 WT (AKT1 E17K): 3 | AKT1 E17K IC50: Selectivity vs AKT2 (AKT1 E17K): 66 | IC50 (AKT1 E17K): < 100 nM | IC50 (AKT1 WT): < 100 nM

Cc1c(CC(=O)NCc2ccc(-n3c(-c4cccnc4N)nc4ccc(-c5ccccc5)nc43)cc2)ccc(C=O)c1O [Example 14, N-({4-[2-(2-aminopyridin-3-yl)-5-phenylimidazo[4,5-b]pyridin-3-yl]phenyl}methyl)-2-(4-formyl-3-hydroxy-2-methylphenyl)acetamide]
IC50 (AKT2): 100 to 500 nM | AKT1 E17K IC50: Selectivity vs AKT1 WT (AKT1 E17K): 3.3 | AKT1 E17K IC50: Selectivity vs AKT2 (AKT1 E17K): 36 | IC50 (AKT1 E17K): < 100 nM | IC50 (AKT1 WT): < 100 nM

C[C@H](NCCc1ccc(O)c(C=O)c1)c1ccc(-n2c(-c3cccnc3N)nc3ccc(-c4ccccc4)nc32)cc1 [Compound 92, 5-(2-{[(1S)-1-{4-[2-(2-aminopyridin-3-yl)-5-phenylimidazo[4,5-b]pyridin-3-yl]phenyl}ethyl]amino}ethyl)-2-hydroxybenzaldehyde]
IC50 (AKT2): 100 to 500 nM | AKT1 E17K IC50: Selectivity vs AKT1 WT (AKT1 E17K): 0.26 | AKT1 E17K IC50: Selectivity vs AKT2 (AKT1 E17K): 0.75 | IC50 (AKT1 E17K): 100 to 500 nM | IC50 (AKT1 WT): 100 to 500 nM

Cc1ccc2nc(-c3cccnc3N)n(-c3ccc(CNC(=O)Cc4ccc(C=O)c(O)c4)cc3)c2n1 [Compound 24, N-({4-[2-(2-aminopyridin-3-yl)-5-methylimidazo[4,5-b]pyridin-3-yl]phenyl}methyl)-2-(4-formyl-3-hydroxyphenyl)acetamide]
IC50 (AKT2): > 500 nM | AKT1 E17K IC50: Selectivity vs AKT1 WT (AKT1 E17K): 4.3 | AKT1 E17K IC50: Selectivity vs AKT2 (AKT1 E17K): 210 | IC50 (AKT1 E17K): < 100 nM | IC50 (AKT1 WT): < 100 nM

Nc1ncccc1-c1nc2ccc(-c3cccc(N4CCOCC4)c3)nc2n1-c1ccc(CNC(=O)Cc2ccc(C=O)c(O)c2)cc1 [Compound 55, N-({4-[2-(2-aminopyridin-3-yl)-5-[3-(morpholin-4-yl)phenyl]imidazo[4,5-b]pyridin-3-yl]phenyl}methyl)-2-(4-formyl-3-hydroxyphenyl)acetamide]
IC50 (AKT2): < 100 nM | AKT1 E17K IC50: Selectivity vs AKT1 WT (AKT1 E17K): 0.93 | AKT1 E17K IC50: Selectivity vs AKT2 (AKT1 E17K): 6.8 | IC50 (AKT1 E17K): < 100 nM | IC50 (AKT1 WT): < 100 nM

CN(C)C(=O)Nc1cc(CC(=O)NCc2ccc(-n3c(-c4cccnc4N)nc4cccnc43)cc2)ccc1C=O [Compound 43, N-(4-(2-(2-aminopyridin-3-yl)-3H-imidazo[4,5-b]pyridin-3-yl)benzyl)-2-(3-(3,3-dimethylureido)-4-formylphenyl)acetamide]
IC50 (AKT2): > 500 nM | AKT1 E17K IC50: Selectivity vs AKT1 WT (AKT1 E17K): 4.5 | AKT1 E17K IC50: Selectivity vs AKT2 (AKT1 E17K): >150 | IC50 (AKT1 E17K): < 100 nM | IC50 (AKT1 WT): 100 to 500 nM

Nc1ncccc1-c1nc2ccc(-c3ccccc3)nc2n1-c1ccc(CNC(=O)C(F)c2ccc(C=O)c(O)c2)cc1 (stereo not drawn) [Compound 65, N-({4-[2-(2-aminopyridin-3-yl)-5-phenylimidazo[4,5-b]pyridin-3-yl]phenyl}methyl)-2-fluoro-2-(4-formyl-3-hydroxyphenyl)acetamide]
IC50 (AKT2): 100 to 500 nM | AKT1 E17K IC50: Selectivity vs AKT1 WT (AKT1 E17K): 1.2 | AKT1 E17K IC50: Selectivity vs AKT2 (AKT1 E17K): 37 | IC50 (AKT1 E17K): < 100 nM | IC50 (AKT1 WT): < 100 nM

Nc1ncccc1-c1nc2ccc(-c3ccccc3F)nc2n1-c1ccc(CNC(=O)Cc2ccc(C=O)c(O)c2)cc1 [Compound 54, N-({4-[2-(2-aminopyridin-3-yl)-5-(2-fluorophenyl)imidazo[4,5-b]pyridin-3-yl]phenyl}methyl)-2-(4-formyl-3-hydroxyphenyl)acetamide]
IC50 (AKT2): 100 to 500 nM | AKT1 E17K IC50: Selectivity vs AKT1 WT (AKT1 E17K): 1.8 | AKT1 E17K IC50: Selectivity vs AKT2 (AKT1 E17K): 64 | IC50 (AKT1 E17K): < 100 nM | IC50 (AKT1 WT): < 100 nM

Nc1ncccc1-c1nc2ccc(-c3ccccc3)nc2n1-c1ccc(C(=O)NCc2ccc(O)c(C=O)c2)cc1 [Compound 29, 4-(2-(2-aminopyridin-3-yl)-5-phenyl-3H-imidazo[4,5-b]pyridin-3-yl)-N-(3-formyl-4-hydroxybenzyl)benzamide]
IC50 (AKT2): 100 to 500 nM | AKT1 E17K IC50: Selectivity vs AKT1 WT (AKT1 E17K): 3 | AKT1 E17K IC50: Selectivity vs AKT2 (AKT1 E17K): 23 | IC50 (AKT1 E17K): < 100 nM | IC50 (AKT1 WT): < 100 nM
